Results as given in patent publication US7064120B2, “Tricyclic pyridyl carboxamides and derivatives thereof tocolytic oxytocin receptor antagonists” (Wyeth, priority 2001, dated 2006).

Molecular target: T1, human oxytocin receptor (Homo sapiens, UniProt P30559)
T1 construct: host or cells: CHO cells, stably transfected (pcDNA3.1 vector)
T1 sequence (P30559 1-389): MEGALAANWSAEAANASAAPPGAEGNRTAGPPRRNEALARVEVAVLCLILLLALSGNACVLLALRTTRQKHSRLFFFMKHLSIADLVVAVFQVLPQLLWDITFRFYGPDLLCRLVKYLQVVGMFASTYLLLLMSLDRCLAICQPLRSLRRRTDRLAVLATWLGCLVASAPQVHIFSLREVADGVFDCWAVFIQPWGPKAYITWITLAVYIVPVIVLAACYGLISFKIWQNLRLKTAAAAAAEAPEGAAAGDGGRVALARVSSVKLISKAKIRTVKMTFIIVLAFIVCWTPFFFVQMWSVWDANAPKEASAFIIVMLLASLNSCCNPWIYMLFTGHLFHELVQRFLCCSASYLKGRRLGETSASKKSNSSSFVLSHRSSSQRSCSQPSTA
Assay: Oxytocin binding in CHO cell membranes expressing human oxytocin receptors ([3H]oxytocin radioligand binding)
Details: for inhibition at 0.1 µM: 100 nM, read-out: OT % inhibition @ 100 nM
How it was run: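 Values are % inhibition at one concentration or nM IC50 from [3H]oxytocin displacement. Membranes from human oxytocin receptor CHO cells, 25–50 μg protein/well, 60 min at room temperature, pH 7.4 Tris buffer with protease inhibitors; bound label by filtration and scintillation counting.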

Structure (SMILES) | inhibition at 0.1 µM | IC50 (value in parentheses, read-out: OT (IC50))
Cc1ccccc1-c1ccc(C(=O)N2Cc3ccc(C(=O)N(C)CCc4ccccn4)n3Cc3ccccc32)cc1C [Example 66, 10-[(2,2′-Dimethyl-[1,1′-biphenyl]-4-yl)carbonyl]-N-methyl-N-[2-(2-pyridinyl)ethyl]-10,11-dihydro-5H-pyrrolo[2,1-c][1,4]benzodiazepine-3-carboxamide] | 92% | –
COc1ccccc1-c1ccc(C(=O)N2Cc3ccc(C(=O)N4CCN(c5ccncc5)CC4)n3Cc3ccccc32)cc1C [Example 113, {10-[(2′-Methoxy-2-methyl-[1,1′-biphenyl]-4-yl)carbonyl]-10,11-dihydro-5H-pyrrolo[2,1-c][1,4]benzodiazepin-3-yl}[4-(4-pyridinyl)-1-piperazinyl]methanone] | – | 10.8 nM
O=C(NCc1ccncc1)c1ccc2n1Cc1ccccc1N(C(=O)c1ccc(-c3cccc4ccccc34)cc1Cl)C2 [Example 99, 10-[2-Chloro-4-(naphthalen-1-yl)benzoyl]-N-(4-pyridinylmethyl)-10,11-dihydro-5H-pyrrolo[2,1-c][1,4]benzodiazepine-3-carboxamide] | 13% | –
